pEC50: −log10 of the molar value. No end group written: not given here.
Key:
[1] = test system: human red blood cells (hRBCs); assay: Hemolytic activity, hemoglobin release; assay type: cell-based; conditions: human red blood cells (group 0 Rh+), 50 µM peptide, 37 °C, absorbance 540 nm, PBS 0%, Triton 1% 100%
Description: Hemolytic and cytotoxic effects were determined as previously described. In particular, ISDPs (final concentrations of 25, 50, and 100 µM) were tested for their hemolytic activities against human red blood cells (hRBCs) (group 0 Rh+). After 30 and 120 min incubation at 37 °C, the release of hemoglobin was monitored by measuring the absorbance of the supernatant at 540 nm. Controls for zero hemolysis (blank) and 100% hemolysis consisted of hRBCs suspended in PBS and Triton 1%, respectively.

C. albicans SC5314 [2] = assay type: cell-based, Candida albicans
Description: The candidacidal activity of ISDPs was evaluated by conventional colony forming unit (CFU) assays, as previously described. ISDPs were tested at serial dilutions to determine the half maximal effective concentration (EC50) values. Briefly, approximately 500 germinating C. albicans SC5314 cells were suspended in 100 µL of distilled water in the presence or absence (control growth) of ISDPs. After incubation at 37 °C for 6 h, cell suspensions were plated on Sabouraud dextrose agar. CFUs were enumerated after 48–72 h of incubation at 30 °C, and candidacidal activity was determined as a percentage of CFU reduction. Each assay was carried out in triplicate and at least two independent experiments were performed for each condition. EC50 was calculated by nonlinear regression analysis using GraphPad Prism 5 software. Afterwards, the kinetics of ISDPs killing activity, at their 2× EC50 value concentration, was determined by CFU assays up to 6 h. Samples were collected for CFU determination after 5, 10, 15, 20, 30, 60, 120, 240, and 360 min incubation.
Figure 1 Time kinetics of in vitro activity of in silico designed peptides (ISDPs) against Candida albicans SC5314. Peptide concentrations were equal to their 2× EC50 values. The activity is expressed as percental killing; reported data represent mean values ± standard deviation.

[3] = test system: monkey kidney epithelial cells (LLC-MK2); assay: MTT cytotoxicity assay; assay type: cell-based; conditions: 200 µM peptide, 24 h, vs. 100% of untreated control cells
Description: MTT assay, based on the ability of metabolically active cells to convert the yellow water-soluble tetrazolium salt into formazan crystals, was used to evaluate peptide cytotoxicity against monkey kidney epithelial cells (LLC-MK2). LLC-MK2 cells were treated with ISDPs (50, 100, and 200 µM) for 24 h. Cells in medium without peptide served as control. After this period, cells were incubated with MTT (5 mg/mL, 10 μL/well) in serum-free medium for 2 h at 37 °C, the medium was removed, and the crystal formazan dye was solubilized by adding isopropanol with 5% HCl 1 M (100 μL). Absorbance was measured at 540 nm.

C. albicans SC5314 [4] = conditions: G. mellonella larvae infected with C. albicans, treated with parent K10S peptide; controls 24 h; previous work; cited from earlier work
Description: Therapeutic activity of ISDPs against C. albicans infection was evaluated in G. mellonella larvae. After the inoculum of a lethal dose of yeast cells, a single injection of peptides led to a significant increase in survival of larvae in comparison with infected animals inoculated with saline. The median survival time was 48 h for larvae treated with R10S-RR and K10S-I, and 24 h for larvae treated with K10T-TT and K10S-SS, versus 24 h for the control group. In a previous work, a median survival time of 72 h was reported for larvae treated with the parent K10S peptide in comparison with 24 h for ...

C. albicans SC5314 [5] = conditions: C. albicans SC5314, parent K10S peptide; cited from earlier work
Description: Candidacidal activity of all tested peptides was very fast. After 30 min, in fact, percental killing ranged from 68% (K10S-SS) to nearly 100% (R-10S-RR and K10S-I).

C. albicans SC5314 cells = conditions: parent peptide K10S; cited from earlier work
From the text: The individual amino acid substitutions also influenced the possible mechanism of action of the peptides. […] All ISDPs were characterized by the ability to induce intracellular ROS production (Figure 5).

C. albicans SC5314 [6] = conditions: C. albicans SC5314, CFU assay; EC50 of K10S parent peptide; read-out: EC50 (95% Confidence Intervals); cited from earlier work
From the text: Table 3 In vitro candidacidal activity of in silico designed peptides (ISDPs) against C. albicans SC5314. | column: EC50 ^1 (95% Confidence Intervals)

| Sequence | hemolysis ([1]; 30 min) | hemolysis ([1]; 120 min) | percental killing after 30 min (C. albicans SC5314 [2]) | cell viability [3] | median survival time (C. albicans SC5314 [4]) | percental killing at 30 min (C. albicans SC5314 [5]) | apoptosis induction (C. albicans SC5314 cells) | pEC50 (C. albicans SC5314 [6]) |
| --- | --- | --- | --- | --- | --- | --- | --- | --- |
| KKVSMSCSAS [Peptide K10S-SS] | 2.38% | 2.01% | 68% | 92.5 ± 0.11% | – | – | – | – |
| KKVTMTCSAS [Peptide K10S] | – | – | – | – | 72 h | 36.93% | lack of induction of apoptotic processes | 6.56 |

— paper PMC8227935, “In Silico Predicted Antifungal Peptides: In Vitro and In Vivo Anti-Candida Activity” (Journal of Fungi, 2021)
